System: adult fleas (Ctenocephalides felis)
Experiment: In vitro contact test with fleas (coated test tubes)
Conditions: B-11 alone
From the text: According to S. R. Colby, Weeds 15 (1967), 20-22, the expected action for a given combination of two active compounds can be calculated as follows: if • X is the kill rate, expressed in % of the untreated control, when employing active compound A at an application rate of m g/ha or in a concentration of m ppm, • Y is the kill rate, expressed in % of the untreated control, when employing active compound B at an application rate of n g/ha or in a concentration of n ppm and • E is the kill rate, expressed in % of the untreated control, when employing active compounds A and B at application rates of m and n g/ha or in a concentration of m and n ppm, • then
In this case, the actually observed kill rate must exceed the value calculated using the above formula for the expected kill rate (E).
In vitro contact tests with ticks and fleas
From Table 1, representatives of important classes of active compounds (component B) were now tested in combination with pyrazine derivatives of the formula (I) according to the invention as component A against arachnids and insects. To this end, roll-necked test tubes were coated with a solution of active compound A or B or a combination of the two in acetone (2 h of swing rotation at 30 rpm in a fume cupboard). […]

demiditraz [B-11]
insecticidal activity in the contact test method: no insecticidal activity

Reference: patent publication US9066945B2, “Ectoparasiticidal active substance combinations” (Bayer Intellectual Property GmbH, priority 2010, dated 2015)
